Assay results taken from the NIST ThermoML archive (doi:10.1021/je300252d).

Test: mn = molality of the nth substance listed, in mol/kg
Conditions: 100 kPa, Liquid, Direct current cell with electrodes

[Na+].c1ccc([B-](c2ccccc2)(c2ccccc2)c2ccccc2)cc1 [sodium tetraphenylboron] + CN(C)C=O
Conditions | molar conductivity [S·m2/mol]
283.15 K, m1 = 0.0001121 | 0.004311
283.15 K, m1 = 0.0003006 | 0.004246
283.15 K, m1 = 0.0005305 | 0.004194
283.15 K, m1 = 0.0007538 | 0.0041545
283.15 K, m1 = 0.001184 | 0.0040963
283.15 K, m1 = 0.001959 | 0.0040172
283.15 K, m1 = 0.002964 | 0.0039424
283.15 K, m1 = 0.004014 | 0.0038787
283.15 K, m1 = 0.005905 | 0.0037902
283.15 K, m1 = 0.007908 | 0.0037146
283.15 K, m1 = 0.009953 | 0.0036529
283.15 K, m1 = 0.01189 | 0.003601
288.15 K, m1 = 8.405e-05 | 0.004653
288.15 K, m1 = 0.0003375 | 0.00456
288.15 K, m1 = 0.0005532 | 0.0045097
288.15 K, m1 = 0.0008262 | 0.0044598
288.15 K, m1 = 0.001174 | 0.0044103
288.15 K, m1 = 0.001935 | 0.0043259
288.15 K, m1 = 0.003089 | 0.004235
288.15 K, m1 = 0.003947 | 0.00418
288.15 K, m1 = 0.005926 | 0.0040813
288.15 K, m1 = 0.007888 | 0.004001
288.15 K, m1 = 0.009893 | 0.0039356
288.15 K, m1 = 0.01186 | 0.0038782
293.15 K, m1 = 8.854e-05 | 0.00499
293.15 K, m1 = 0.0003068 | 0.004902
293.15 K, m1 = 0.0005164 | 0.0048481
293.15 K, m1 = 0.0007512 | 0.0047996
293.15 K, m1 = 0.001224 | 0.004726
293.15 K, m1 = 0.001989 | 0.004637
293.15 K, m1 = 0.003077 | 0.0045457
293.15 K, m1 = 0.004001 | 0.004483
293.15 K, m1 = 0.005908 | 0.0043822
293.15 K, m1 = 0.007927 | 0.004295
293.15 K, m1 = 0.009859 | 0.004226
293.15 K, m1 = 0.0119 | 0.004162
298.15 K, m1 = 0.000116 | 0.005325
298.15 K, m1 = 0.0003157 | 0.005244
298.15 K, m1 = 0.0005504 | 0.0051809
298.15 K, m1 = 0.0007618 | 0.0051351
298.15 K, m1 = 0.001217 | 0.0050592
298.15 K, m1 = 0.002007 | 0.0049609
298.15 K, m1 = 0.002964 | 0.0048739
298.15 K, m1 = 0.003939 | 0.004802
298.15 K, m1 = 0.005917 | 0.0046899
298.15 K, m1 = 0.00789 | 0.004599
298.15 K, m1 = 0.009808 | 0.0045256
298.15 K, m1 = 0.01189 | 0.0044558
303.15 K, m1 = 0.0001023 | 0.005694
303.15 K, m1 = 0.0003262 | 0.005596
303.15 K, m1 = 0.0005565 | 0.00553
303.15 K, m1 = 0.0007645 | 0.0054821
303.15 K, m1 = 0.001229 | 0.0053997
303.15 K, m1 = 0.002017 | 0.0052952
303.15 K, m1 = 0.003018 | 0.0051984
303.15 K, m1 = 0.004001 | 0.0051217
303.15 K, m1 = 0.005892 | 0.0050075
303.15 K, m1 = 0.007841 | 0.0049118
303.15 K, m1 = 0.009874 | 0.0048292
303.15 K, m1 = 0.01188 | 0.0047579
308.15 K, m1 = 0.000135 | 0.006046
308.15 K, m1 = 0.0003264 | 0.005961
308.15 K, m1 = 0.0005229 | 0.0058999
308.15 K, m1 = 0.0007539 | 0.0058422
308.15 K, m1 = 0.00122 | 0.0057534
308.15 K, m1 = 0.002002 | 0.0056421
308.15 K, m1 = 0.002969 | 0.005541
308.15 K, m1 = 0.00395 | 0.0054581
308.15 K, m1 = 0.005926 | 0.00533
308.15 K, m1 = 0.007923 | 0.0052265
308.15 K, m1 = 0.009885 | 0.005143
308.15 K, m1 = 0.01187 | 0.0050687
313.15 K, m1 = 8.854e-05 | 0.00646
313.15 K, m1 = 0.0002531 | 0.006367
313.15 K, m1 = 0.0004344 | 0.006299
313.15 K, m1 = 0.00071 | 0.0062208
313.15 K, m1 = 0.001219 | 0.006116
313.15 K, m1 = 0.002012 | 0.0059959
313.15 K, m1 = 0.003006 | 0.0058852
313.15 K, m1 = 0.00399 | 0.0057965
313.15 K, m1 = 0.005907 | 0.0056636
313.15 K, m1 = 0.007913 | 0.0055535
313.15 K, m1 = 0.00989 | 0.0054653
313.15 K, m1 = 0.01185 | 0.0053887
318.15 K, m1 = 0.0001115 | 0.006838
318.15 K, m1 = 0.0002618 | 0.006751
318.15 K, m1 = 0.000487 | 0.006665
318.15 K, m1 = 0.0007457 | 0.0065904
318.15 K, m1 = 0.001234 | 0.0064856
318.15 K, m1 = 0.002038 | 0.0063572
318.15 K, m1 = 0.003 | 0.0062427
318.15 K, m1 = 0.003985 | 0.0061473
318.15 K, m1 = 0.005931 | 0.0060029
318.15 K, m1 = 0.007878 | 0.0058897
318.15 K, m1 = 0.009914 | 0.0057949

F[B-](F)(F)F.[Na+] [sodium tetrafluoroborate] + CN(C)C=O
Conditions | molar conductivity [S·m2/mol]
283.15 K, m1 = 0.0001924 | 0.006693
283.15 K, m1 = 0.0003952 | 0.0066184
283.15 K, m1 = 0.0006451 | 0.0065533
283.15 K, m1 = 0.0008265 | 0.0065141
283.15 K, m1 = 0.001295 | 0.006434
283.15 K, m1 = 0.002093 | 0.0063285
283.15 K, m1 = 0.00309 | 0.0062291
283.15 K, m1 = 0.004094 | 0.0061456
283.15 K, m1 = 0.005982 | 0.0060221
283.15 K, m1 = 0.007983 | 0.0059166
283.15 K, m1 = 0.009964 | 0.005832
283.15 K, m1 = 0.01199 | 0.0057567
288.15 K, m1 = 0.0001674 | 0.007209
288.15 K, m1 = 0.000442 | 0.007102
288.15 K, m1 = 0.000627 | 0.0070513
288.15 K, m1 = 0.0007814 | 0.0070146
288.15 K, m1 = 0.001324 | 0.0069135
288.15 K, m1 = 0.002128 | 0.0067991
288.15 K, m1 = 0.003087 | 0.0066947
288.15 K, m1 = 0.00408 | 0.0066044
288.15 K, m1 = 0.006001 | 0.0064671
288.15 K, m1 = 0.007983 | 0.0063522
288.15 K, m1 = 0.009981 | 0.0062566
288.15 K, m1 = 0.01195 | 0.0061747
293.15 K, m1 = 0.0002336 | 0.007686
293.15 K, m1 = 0.0004583 | 0.0076005
293.15 K, m1 = 0.0006194 | 0.0075538
293.15 K, m1 = 0.0008218 | 0.0075029
293.15 K, m1 = 0.001262 | 0.0074142
293.15 K, m1 = 0.001996 | 0.0072971
293.15 K, m1 = 0.003085 | 0.0071656
293.15 K, m1 = 0.004073 | 0.0070679
293.15 K, m1 = 0.005971 | 0.0069203
293.15 K, m1 = 0.007974 | 0.0067931
293.15 K, m1 = 0.009986 | 0.0066867
293.15 K, m1 = 0.01198 | 0.0065964
298.15 K, m1 = 0.0001864 | 0.008228
298.15 K, m1 = 0.0003604 | 0.008147
298.15 K, m1 = 0.0005971 | 0.0080676
298.15 K, m1 = 0.000833 | 0.0080036
298.15 K, m1 = 0.001297 | 0.0079038
298.15 K, m1 = 0.002158 | 0.0077599
298.15 K, m1 = 0.00307 | 0.0076432
298.15 K, m1 = 0.004131 | 0.0075305
298.15 K, m1 = 0.005971 | 0.0073766
298.15 K, m1 = 0.007994 | 0.0072373
298.15 K, m1 = 0.009949 | 0.0071242
298.15 K, m1 = 0.01197 | 0.0070255
303.15 K, m1 = 0.0001663 | 0.008767
303.15 K, m1 = 0.0003918 | 0.008654
303.15 K, m1 = 0.0005861 | 0.0085855
303.15 K, m1 = 0.0007746 | 0.008529
303.15 K, m1 = 0.001279 | 0.0084093
303.15 K, m1 = 0.002088 | 0.0082612
303.15 K, m1 = 0.003044 | 0.0081277
303.15 K, m1 = 0.004105 | 0.0080061
303.15 K, m1 = 0.005964 | 0.0078384
303.15 K, m1 = 0.007948 | 0.0076906
303.15 K, m1 = 0.01001 | 0.0075615
303.15 K, m1 = 0.01198 | 0.0074596
308.15 K, m1 = 0.0001761 | 0.009295
308.15 K, m1 = 0.0003871 | 0.009183
308.15 K, m1 = 0.0005655 | 0.0091142
308.15 K, m1 = 0.0008095 | 0.0090359
308.15 K, m1 = 0.001266 | 0.0089201
308.15 K, m1 = 0.002043 | 0.0087655
308.15 K, m1 = 0.003019 | 0.0086178
308.15 K, m1 = 0.004064 | 0.0084888
308.15 K, m1 = 0.005984 | 0.0083031
308.15 K, m1 = 0.007986 | 0.0081431
308.15 K, m1 = 0.01001 | 0.0080069
308.15 K, m1 = 0.01196 | 0.0079009
313.15 K, m1 = 0.0001113 | 0.009888
313.15 K, m1 = 0.0003812 | 0.00972
313.15 K, m1 = 0.0006135 | 0.0096252
313.15 K, m1 = 0.000783 | 0.0095672
313.15 K, m1 = 0.001297 | 0.0094265
313.15 K, m1 = 0.002162 | 0.0092463
313.15 K, m1 = 0.003051 | 0.0091053
313.15 K, m1 = 0.004099 | 0.0089684
313.15 K, m1 = 0.005996 | 0.0087733
313.15 K, m1 = 0.008013 | 0.0086011
313.15 K, m1 = 0.01004 | 0.0084556
313.15 K, m1 = 0.01199 | 0.0083454
318.15 K, m1 = 0.0001596 | 0.0104
318.15 K, m1 = 0.0004215 | 0.01024
318.15 K, m1 = 0.0005697 | 0.010177
318.15 K, m1 = 0.0008753 | 0.010067
318.15 K, m1 = 0.001339 | 0.009935
318.15 K, m1 = 0.002012 | 0.0097823
318.15 K, m1 = 0.003095 | 0.009596
318.15 K, m1 = 0.004095 | 0.0094578
318.15 K, m1 = 0.005994 | 0.0092497
318.15 K, m1 = 0.008014 | 0.0090658
318.15 K, m1 = 0.009953 | 0.0089174
318.15 K, m1 = 0.01195 | 0.0087989
